Measured values reported in ChEMBL document CHEMBL6134887, “Linker and Head-Group Exploration of Anti-MRSA Triaromatic Pleuromutilins” (J Med Chem, 2025).
≈ marks a conversion by molar mass, not a printed value.

Columns and labels:
[1] = Metabolic stability in mouse liver microsomes assessed as half-life at 1 uM measured up to 60 mins by LC-MS/MS analysis; type: ADME, Microsome
[2] = tested on: Staphylococcus aureus; assay: Antibacterial activity against methicillin resistant Staphylococcus aureus USA300 FPR3757 assessed as inhibition of bacterial growth incubated for 20 to 24 hrs by microbroth serial dilution method; type: functional; details: time 20-24 hrs, read-out: MIC100
[3] = Metabolic stability in mouse liver assessed as intrinsic clearance at 1 uM measured up to 60 mins by LC-MS/MS analysis; type: ADME, tissue-based; details: read-out: CLH
[4] = Metabolic stability in human liver assessed as intrinsic clearance at 1 uM measured up to 30 mins by LC-MS/MS analysis; type: ADME, tissue-based; details: read-out: CLH
[5] = Metabolic stability in human liver microsomes assessed as half-life at 1 uM measured up to 30 mins by LC-MS/MS analysis; type: ADME, Microsome
[6] = tested on: Staphylococcus aureus; assay: Antibacterial activity against methicillin susceptible Staphylococcus aureus ATCC 25923 assessed as inhibition of bacterial growth incubated for 20 to 24 hrs by microbroth serial dilution method; type: functional; details: time 20-24 hrs, read-out: MIC100
[7] = tested on: Staphylococcus aureus; assay: Antibacterial activity against methicillin susceptible Staphylococcus aureus ATCC 29213 assessed as inhibition of bacterial growth incubated for 20 to 24 hrs by microbroth serial dilution method; type: functional; details: time 20-24 hrs, read-out: MIC100
[8] = tested on: Enterococcus faecalis; assay: Antibacterial activity against Enterococcus faecalis assessed as inhibition of bacterial growth incubated for 20 to 24 hrs by microbroth serial dilution method; type: functional; details: time 20-24 hrs, read-out: MIC100
[9] = tested on: Enterococcus faecium; assay: Antibacterial activity against vancomycin, ampicillin and ciprofloxacin resistant Enterococcus faecium clinical isolate 5 assessed as inhibition of bacterial growth incubated for 20 to 24 hrs by microbroth serial dilution method; type: functional; details: time 20-24 hrs, read-out: MIC100
[10] = tested on: Streptococcus pneumoniae; assay: Antibacterial activity against Streptococcus pneumoniae assessed as inhibition of bacterial growth incubated for 20 to 24 hrs by microbroth serial dilution method; type: functional; details: time 20-24 hrs, read-out: MIC100
[11] = tested on: Enterococcus faecium; assay: Antibacterial activity against vancomycin, ampicillin and ciprofloxacin resistant Enterococcus faecium clinical isolate 1 assessed as inhibition of bacterial growth incubated for 20 to 24 hrs by microbroth serial dilution method; type: functional; details: time 20-24 hrs, read-out: MIC100

| SMILES | half-life at 1 µM [1] | MIC [2] | CLint scaled at 1 µM [3] | CLint scaled at 1 µM [4] | half-life at 1 µM [5] | also measured |
| --- | --- | --- | --- | --- | --- | --- |
| C=C[C@]1(C)C[C@@H](OC(=O)Cn2cc(-c3cncc(NC(=O)c4ccc(OC)cc4)c3)nn2)[C@]2(C)[C@H](C)CC[C@]3(CCC(=O)[C@H]32)[C@@H](C)[C@@H]1O | 0.56 min | 0.06 µg/mL (≈ 0.0915 µM) | 591 L/h/kg | 219 L/h/kg | 1.7 min |  |
| C=C[C@]1(C)C[C@@H](OC(=O)Cn2cc(-c3ccc(Cn4ccnc4)nc3)nn2)[C@]2(C)[C@H](C)CC[C@]3(CCC(=O)[C@H]32)[C@@H](C)[C@@H]1O | 2.4 min | 1 µg/mL (≈ 1.7 µM) | 140 L/h/kg | 60.3 L/h/kg | 6.2 min |  |
| C=C[C@]1(C)C[C@@H](OC(=O)Cn2cc(-c3cccc(C(=O)Nc4ncnc5[nH]cnc45)c3)nn2)[C@]2(C)[C@H](C)CC[C@]3(CCC(=O)[C@H]32)[C@@H](C)[C@@H]1O | 1.2 min | 0.12 µg/mL (≈ 0.18 µM) | 276 L/h/kg | 140 L/h/kg | 2.7 min |  |
| C=C[C@]1(C)C[C@@H](OC(=O)Cn2cc(-c3cncc(C(=O)Nc4ncnc5[nH]cnc45)c3)nn2)[C@]2(C)[C@H](C)CC[C@]3(CCC(=O)[C@H]32)[C@@H](C)[C@@H]1O | 1.3 min | 0.06 µg/mL (≈ 0.0899 µM) | 246 L/h/kg | 104 L/h/kg | 3.6 min |  |
| C=C[C@]1(C)C[C@@H](OC(=O)Cn2cc(-c3ccc(Cn4cnc5c(N)ncnc54)c(O)c3)nn2)[C@]2(C)[C@H](C)CC[C@]3(CCC(=O)[C@H]32)[C@@H](C)[C@@H]1O | 0.56 min |  | 586 L/h/kg |  |  |  |
| C=C[C@]1(C)C[C@@H](OC(=O)Cn2cc(-c3ccc(Nc4ncnc5[nH]cnc45)cc3)nn2)[C@]2(C)[C@H](C)CC[C@]3(CCC(=O)[C@H]32)[C@@H](C)[C@@H]1O | 1.76 min | 0.12 µg/mL (≈ 0.188 µM) | 187 L/h/kg | 17.8 L/h/kg | 23.4 min |  |
| C=C[C@]1(C)C[C@@H](OC(=O)Cn2cc(-c3ccc(Cn4ccc5c(N)ncnc54)c(OC)c3)nn2)[C@]2(C)[C@H](C)CC[C@]3(CCC(=O)[C@H]32)[C@@H](C)[C@@H]1O | 0.68 min | 0.12 µg/mL (≈ 0.176 µM) | 486 L/h/kg | 310 L/h/kg | 1.2 min |  |
| C=C[C@]1(C)C[C@@H](OC(=O)CS[C@@H]2CC[C@@H](N)C[C@H]2O)[C@]2(C)[C@H](C)CC[C@]3(CCC(=O)[C@H]32)[C@@H](C)[C@@H]1O [LEFAMULIN] | 11.5 min |  | 28.7 L/h/kg |  |  | MIC [6]: 0.12 µg/mL (≈ 0.236 µM); MIC [7]: 0.25 µg/mL (≈ 0.492 µM) |
| C=C[C@]1(C)C[C@@H](OC(=O)Cn2cc(-c3cccc(Nc4ncnc5[nH]cnc45)c3)nn2)[C@]2(C)[C@H](C)CC[C@]3(CCC(=O)[C@H]32)[C@@H](C)[C@@H]1O | 0.67 min | 0.06 µg/mL (≈ 0.0939 µM) | 489 L/h/kg | 188 L/h/kg | 2 min | MIC [8]: 0.5 µg/mL (≈ 0.783 µM); MIC [9]: 0.25 µg/mL (≈ 0.391 µM); MIC [10]: 0.5 µg/mL (≈ 0.783 µM); MIC [11]: 0.25 µg/mL (≈ 0.391 µM) |
| C=C[C@]1(C)C[C@@H](OC(=O)Cn2cc(-c3cccc(NC(=O)c4ccc(OC)cc4)c3)nn2)[C@]2(C)[C@H](C)CC[C@]3(CCC(=O)[C@H]32)[C@@H](C)[C@@H]1O |  | 0.12 µg/mL (≈ 0.183 µM) |  |  |  | MIC [8]: 0.5 µg/mL (≈ 0.764 µM); MIC [9]: 0.25 µg/mL (≈ 0.382 µM); MIC [10]: 0.25 µg/mL (≈ 0.382 µM); MIC [11]: 0.12 µg/mL (≈ 0.183 µM) |
| C=C[C@]1(C)C[C@@H](OC(=O)Cn2cc(-c3cncc(C(O)c4ccc5c(N)ncnn45)c3)nn2)[C@]2(C)[C@H](C)CC[C@]3(CCC(=O)[C@H]32)[C@@H](C)[C@@H]1O (stereo partly specified) | 2.5 min | 0.25 µg/mL (≈ 0.374 µM) | 131 L/h/kg | 68.8 L/h/kg | 5.4 min |  |
| C=C[C@]1(C)C[C@@H](OC(=O)Cn2cc(-c3ccc(C(O)c4ccc5c(N)ncnn45)cn3)nn2)[C@]2(C)[C@H](C)CC[C@]3(CCC(=O)[C@H]32)[C@@H](C)[C@@H]1O (stereo partly specified) | 0.66 min | 0.03 µg/mL (≈ 0.0449 µM) | 500 L/h/kg | 275 L/h/kg | 1.4 min |  |
| C=C[C@]1(C)C[C@@H](OC(=O)Cn2cc(-c3ccc(C(O)c4ccc5c(N)ncnn45)nc3)nn2)[C@]2(C)[C@H](C)CC[C@]3(CCC(=O)[C@H]32)[C@@H](C)[C@@H]1O (stereo partly specified) | 0.74 min | 0.03 µg/mL (≈ 0.0449 µM) | 447 L/h/kg | 284 L/h/kg | 1.3 min |  |
| C=C[C@]1(C)C[C@@H](OC(=O)Cn2cc(-c3ccc(Cn4ccnc4)cc3)nn2)[C@]2(C)[C@H](C)CC[C@]3(CCC(=O)[C@H]32)[C@@H](C)[C@@H]1O |  | 0.25 µg/mL (≈ 0.427 µM) |  |  |  |  |
| C=C[C@]1(C)C[C@@H](OC(=O)Cn2cc(-c3ccc(C(=O)c4ccc5c(N)ncnn45)cn3)nn2)[C@]2(C)[C@H](C)CC[C@]3(CCC(=O)[C@H]32)[C@@H](C)[C@@H]1O | 0.54 min | 0.06 µg/mL (≈ 0.09 µM) | > 600 L/h/kg | 221 L/h/kg | 1.7 min |  |
| C=C[C@]1(C)C[C@@H](OC(=O)Cn2cc(-c3cncc(C(=O)Nc4ccc(N)nc4)c3)nn2)[C@]2(C)[C@H](C)CC[C@]3(CCC(=O)[C@H]32)[C@@H](C)[C@@H]1O | 0.6 min | 0.25 µg/mL (≈ 0.39 µM) | 546 L/h/kg |  |  | MIC [8]: 1 µg/mL (≈ 1.56 µM); MIC [9]: 1 µg/mL (≈ 1.56 µM); MIC [10]: 1 µg/mL (≈ 1.56 µM); MIC [11]: 1 µg/mL (≈ 1.56 µM) |
| C=C[C@]1(C)C[C@@H](OC(=O)Cn2cc(-c3cncc(C(=O)Nc4ccc(OC)cc4)c3)nn2)[C@]2(C)[C@H](C)CC[C@]3(CCC(=O)[C@H]32)[C@@H](C)[C@@H]1O |  | 0.12 µg/mL (≈ 0.183 µM) |  |  |  |  |
| C=C[C@]1(C)C[C@@H](OC(=O)Cn2cc(-c3ccc(Cn4ccc5c(N)ncnc54)c(O)c3)nn2)[C@]2(C)[C@H](C)CC[C@]3(CCC(=O)[C@H]32)[C@@H](C)[C@@H]1O |  | 0.06 µg/mL (≈ 0.0898 µM) |  |  |  |  |
| C=C[C@]1(C)C[C@@H](OC(=O)Cn2cc(-c3ccnc(NC(=O)c4cnc(OC)cn4)c3)nn2)[C@]2(C)[C@H](C)CC[C@]3(CCC(=O)[C@H]32)[C@@H](C)[C@@H]1O |  | 0.25 µg/mL (≈ 0.38 µM) |  |  |  |  |
| C=C[C@]1(C)C[C@@H](OC(=O)Cn2cc(-c3ccc(CNc4cc(N)ncn4)cc3)nn2)[C@]2(C)[C@H](C)CC[C@]3(CCC(=O)[C@H]32)[C@@H](C)[C@@H]1O | 0.55 min | 0.03 µg/mL (≈ 0.0478 µM) | > 600 L/h/kg | 289 L/h/kg | 1.3 min |  |
| C=C[C@]1(C)C[C@@H](OC(=O)Cn2cc(-c3ccc(Cn4ccc5c(N)ncnc54)cc3)nn2)[C@]2(C)[C@H](C)CC[C@]3(CCC(=O)[C@H]32)[C@@H](C)[C@@H]1O |  | 0.06 µg/mL (≈ 0.0921 µM) |  |  |  |  |
| C=C[C@]1(C)C[C@@H](OC(=O)Cn2cc(-c3ccc(NC(=O)c4ccc(OC)cc4)cc3)nn2)[C@]2(C)[C@H](C)CC[C@]3(CCC(=O)[C@H]32)[C@@H](C)[C@@H]1O |  | 8 µg/mL (≈ 12.2 µM) |  |  |  |  |
| O=C(O)Cc1ccccc1Nc1c(Cl)cccc1Cl [DICLOFENAC] | 20.2 min |  | 16.3 L/h/kg |  |  |  |
| C=C[C@]1(C)C[C@@H](OC(=O)Cn2cc(-c3cccc(C(=O)Nc4ccccc4)c3)nn2)[C@]2(C)[C@H](C)CC[C@]3(CCC(=O)[C@H]32)[C@@H](C)[C@@H]1O |  | 0.25 µg/mL (≈ 0.4 µM) |  |  |  |  |
| C=C[C@]1(C)C[C@@H](OC(=O)Cn2cc(-c3cncc(NC(=O)c4ccc(OC)nc4)c3)nn2)[C@]2(C)[C@H](C)CC[C@]3(CCC(=O)[C@H]32)[C@@H](C)[C@@H]1O | 0.57 min | 0.12 µg/mL (≈ 0.183 µM) | 574 L/h/kg | 154 L/h/kg | 2.4 min |  |
| C=C[C@]1(C)C[C@@H](OC(=O)Cn2cc(-c3ccc(Cn4cnc5c(N)ncnc54)nc3)nn2)[C@]2(C)[C@H](C)CC[C@]3(CCC(=O)[C@H]32)[C@@H](C)[C@@H]1O | 0.58 min |  | 571 L/h/kg |  |  | MIC [6]: 0.06 µg/mL (≈ 0.0918 µM); MIC [7]: 0.06 µg/mL (≈ 0.0918 µM) |
| C=C[C@]1(C)C[C@@H](OC(=O)Cn2cc(-c3cncc(C(=O)Nc4ccccn4)c3)nn2)[C@]2(C)[C@H](C)CC[C@]3(CCC(=O)[C@H]32)[C@@H](C)[C@@H]1O |  | 0.06 µg/mL (≈ 0.0957 µM) |  |  |  |  |
